Results filed as inconclusive are left out.
Each compound was assayed on cells expressing AR112-GFP, GFP fluorescence (assay: enhancers of polyQ-expanded androgen receptor AR112-GFP degradation, cell-based, GFP fluorescence (AID 1607)).
For `CN1CCC[C@@H]1CCO[C@](C)(c1ccccc1)c1ccc(Cl)cc1`, the EC50 was 3.12 µM.
`CC(CN(C)C)CN1c2ccccc2Sc2ccccc21` (stereo not given) was tested, and the EC50 was 3.75 µM.
Work on `CCc1nc(N)nc(N)c1-c1ccc(Cl)cc1` yielded an EC50 of 3.75 µM.
Compound `CNCCCN1c2ccccc2CCc2ccccc21` has an EC50 of 3.12 µM.
`CN1CCN(CCC=C2c3ccccc3Sc3ccc(S(=O)(=O)N(C)C)cc32)CC1` showed an EC50 of 3.12 µM.
Work on `NCCc1cc(O)c(O)cc1O` yielded an EC50 of 3.12 µM.
With `CC(CN(C)C)CN1c2ccccc2CCc2ccccc21` (stereo not given) the EC50 was 3.75 µM.
`COC(=O)[C@H]1[C@H]2C[C@@H]3c4[nH]c5cc(OC)ccc5c4CCN3C[C@H]2C[C@@H](OC(=O)c2cc(OC)c(OC)c(OC)c2)[C@@H]1OC` was tested, and the EC50 was 3.75 µM.
Work on `O=c1cc(-c2ccccc2)oc2c(O)c(O)ccc12` yielded an EC50 of 2.5 µM.
`Clc1ccc(C(OCCN2CCCCC2)c2ccccc2)cc1` (stereo not given) showed an EC50 of 3.75 µM.
`Fc1ccc(C(c2ccc(F)cc2)N2CCN(C/C=C/c3ccccc3)CC2)cc1` was tested, and the EC50 was 3.75 µM.
`CCC(C)[C@H]1O[C@]2(C=C[C@@H]1C)C[C@@H]1C[C@@H](C/C=C(\C)[C@@H](OC3C[C@H](OC)C(O[C@H]4C[C@H](OC)[C@@H](O)[C@H](C)O4)[C@H](C)O3)[C@@H](C)/C=C/C=C3\CO[C@@H]4[C@H](O)C(C)=C[C@@H](C(=O)O1)[C@]34O)O2` (stereo not given in full) showed an EC50 of 3.75 µM.
Compound `COc1ccc2cc3[n+](cc2c1OC)CCc1cc2c(cc1-3)OCO2` has an EC50 of 3.12 µM.
`CN(C)C(=O)C(CCN1CCC(O)(c2ccc(Cl)cc2)CC1)(c1ccccc1)c1ccccc1` showed an EC50 of 3.75 µM.
`CN(C)CCC=C1c2ccccc2C=Cc2ccccc21` was tested, and the EC50 was 3.12 µM.

Reference: PubChem BioAssay AID1607 (NINDS Approved Drug Screening Program, 2009)
